In data set [1] the test system is pentagastrin-stimulated acid secretion of the perfused rat stomach. The data set is described as follows: Pentagastrin-stimulated acid secretion of the perfused rat stomach after intraduodenal administration. It is filed as in vivo. Particulars: anesthetized CD rat, dose 1.0 μmol/kg i.d. The text has this: Testing of the Secretion on the Perfused Rat Stomach
In Table A which follows, the influence of the compounds of the formula 1 according to aspect 3 of the invention on the pentagastrin-stimulated acid secretion of the perfused rat stomach after intraduodenal
The abdomen of anesthetized rats(CD rat, female, 200-250 g; 1.5 g/kg i.m. urethane) was opened after tracheotomy by a median upper abdominal incision and a PVC catheter was fixed transorally in the esophagus and another via the pylorus such that the ends of the tubes just projected into the gastric lumen. The catheter leading from the pylorus led outward into the right abdominal wall through a side opening.
After thorough rinsing (about 50-100 ml), warm (37° C.) physiological NaCl solution was continuously passed through the stomach (0.5 ml/min, pH 6.8-6.9; Braun-Unita I). The pH (pH meter 632, glass electrode EA 147; φ=5 mm, Metrohm) and, by titration with a freshly prepared 0.01 N NaOH solution to pH 7 (Dosimat 665 Metrohm), the secreted HCl were determined in the effluent in each case collected at an interval of 15 minutes.
The gastric secretion was stimulated by continuous infusion of 1 μg/kg (=1.65 ml/h) of i.v. pentagastrin (left femoral vein) about 30 min after the end of the operation (i.e. after determination of 2 preliminary fractions). The substances to be tested were administered intraduodenally in a 2.5 ml/kg liquid volume 60 min after the start of the continuous pentagastrin infusion.
The body temperature of the animals was kept at a constant 37.8-38° C. by infrared irradiation and heat pads (automatic, stepless control by means of a rectal temperature sensor).

The text below walks through data of patent US20060194782A1, “Pharmacologically active imidazo[4,5-c] pyridines” (Altana Pharma AG, priority 2003, published 2006).

`CCc1cccc(C)c1NCc1nccc2c1nc(C)n2C` [Example 1, (1,2-Dimethyl-1H-imidazo[4,5-c]pyridin-4-ylmethyl)-(2-ethyl-6-methyl-phenyl)-amine]: the melting point lay in the range of 141 to 142 °C.
On to `CCc1cccc(C)c1CNc1nc(C(=O)N(C)C)cc2c1nc(C)n2C` [Example 2, 4-(2-Ethyl-6-methyl-benzylamino)-1,2-dimethyl-1H-imidazo[4,5-c]pyridine-6-carboxylic Acid Dimethylamide], for which the melting point was in the range of 204 to 206 °C. In addition, the “Inhibition of acid secretion” value in data set [1] is on record as above 30%.
Taken in the same sequence, the figures for `CCc1cccc(C)c1CNc1nc(C(N)=O)cc2c1nc(C)n2C` [Example 3, 4-(2-Ethyl-6-methyl-benzylamino)-1,2-dimethyl-1H-imidazo[4,5-c]pyridine-6-carboxylic Acid Amide] were 264 to 266 °C and above 30%.
`CCc1cccc(C)c1CNc1nc(C(=O)NC)cc2c1nc(C)n2C` [Example 4, 4-(2-Ethyl-6-methyl-benzylamino)-1,2-dimethyl-1H-imidazo[4,5-c]pyridine-6-carboxylic Acid Methylamide] had a melting point of 157 to 160 °C. Moreover, in data set [1], the “Inhibition of acid secretion” value is recorded as above 30%.
Turning to `CCc1cccc(C)c1CNc1nc(C(=O)NCCO)cc2c1nc(C)n2C` [Example 5, 4-(2-Ethyl-6-methyl-benzylamino)-1,2-dimethyl-1H-imidazo[4,5-c]pyridine-6-carboxylic Acid (2-Hydroxy-ethyl)-amide], the melting point is 208 to 209 °C.
The compound `Cc1nc2c(OCc3ccccc3)nccc2n1C` [Example 7, 4-Benzyloxy-1,2-dimethyl-1H-imidazo[4,5-c]pyridine] gave a melting point of 115 to 116 °C.
For `Cc1nc2c(OCc3ccccc3Cl)nccc2n1C` [Example 8, 4-(2-Chloro-benzyloxy)-1,2-dimethyl-1H-imidazo[4,5-c]pyridine], the melting point lay in the range of 180 to 181 °C.
The same measure, in the same setting: to `Cc1nc2c(OC3CCc4ccccc43)nccc2n1C` (centres unmarked) [Example 10, 4-(Indan-1-yloxy)-1,2-dimethyl-1H-imidazo[4,5-c]pyridine] belongs 164 to 165 °C.
Take `CCOC(=O)c1cc2c(nc(C)n2C)c(NCc2c(C)cccc2CC)n1` [Example 12, 4-(2-Ethyl-6-methyl-benzylamino)-1,2-dimethyl-1H-imidazo[4,5-c]pyridine-6-carboxylic Acid Ethyl Ester]: the melting point was > 111 °C (dec.).
On to `CCc1cccc(C)c1CNc1nc(C(=O)O)cc2c1nc(C)n2C` [Example 13, 4-(2-Ethyl-6-methyl-benzylamino)-1,2-dimethyl-1H-imidazo[4,5-c]pyridine-6-carboxylic Acid], for which the melting point fell in the range of 233 to 236 °C.
Same read-out and setting: for `CCc1cccc(C)c1CNc1nc(OCCOC)cc2c1nc(C)n2C` [Example 14, (2-Ethyl-6-methyl-benzyl)-[6-(2-methoxy-ethoxy)-1,2-dimethyl-1H-imidazo[4,5-c]pyridin-4-yl]-amine] the value was 105 °C; for `CCc1cccc(C)c1CNc1nc(OC)cc2c1nc(C)n2C` [Example 15, (2-Ethyl-6-methyl-benzyl)-(6-methoxy-1,2-dimethyl-1H-imidazo[4,5-c]pyridin-4-yl)-amine], 106 to 107 °C.
`CCc1cccc(C)c1CNc1nc(C(=O)N(C)C)cc2[nH]c(C)nc12` [Example 16, 4-(2-Ethyl-6-methyl-benzylamino)-2-methyl-1H-imidazo[4,5-c]pyridine-6-carboxylic Acid Dimethyl-amide] displayed a melting point of 207 to 208 °C. Also, in data set [1], the “Inhibition of acid secretion” value is listed as above 30%.
